Earlier results in patent US20240000717A1, “DRY POWDER ANTIVIRAL COMPOSITIONS AND THEIR USE FOR TREATING VIRAL INFECTION” (priority 2020, published 2024).

System: hospitalized COVID-19 patients
Settings: Pan et al., MedRxiv 2020

CCC(CC)COC(=O)[C@H](C)N[P@](=O)(OC[C@H]1O[C@@](C#N)(c2ccc3c(N)ncnn23)[C@H](O)[C@@H]1O)Oc1ccccc1 [remdesivir, 2-ethylbutyl ((S)-(((2R,3S,4R,5R)-5-(4-aminopyrrolo[2,1-f][1,2,4]triazin-7-yl)-5-cyano-3,4-dihydroxytetrahydrofuran-2-yl)methoxy)(phenoxy)phosphoryl)-L-alaninate]
effect on 28-day mortality: little or no effect
